From PubChem BioAssay AID1419 (Emory University Molecular Libraries Screening Center, 2008)
Calls of active or inactive are those of the source. The rule behind the calls is not given here.

Assay: EBV protein-peptide binding inhibitors, dose response, biochemical, fluorescence polarization (AID 1419)
Details: cell-free protein-peptide binding, 2 h; for fold change: measured here: P channel fold over control, at 54 µM

## COc1ccccc1NC(=O)CC(c1ccc(OC(C)C)cc1)c1ccccc1OC (stereo unspecified)
  IC50: > 54 µM (inactive)
  fold change: 0.927

## CCCOc1cc(N(CC)CC)ccc1/C=C(/C#N)c1nc2ccc(C)cc2[nH]1
  IC50: 11.8 µM
  fold change: 12.9

## Cc1cc(-c2ccc(N3CCOCC3)cc2)nc2ccccc12
  fold change: 2.8

## O=[N+]([O-])c1ccc(Sc2cccc3cccnc23)c2cccnc12
  IC50: 29.5 µM
  fold change: 2.58

## CC1=Nc2ccccc2/C1=C\c1nc(-c2ccc(F)cc2)oc1O
  IC50: 1.7 µM
  fold change: 19

## O=C(CSc1nc(-c2ccc(F)cc2)nc2c1Cc1ccccc1O2)Nc1ccc(C(=O)O)cc1
  IC50: 2.9 µM
  fold change: 1.11

## CN(C)c1ccc(/C=C(\C#N)C(=O)Nc2nc3c(s2)CCN(Cc2ccccc2)C3)cc1
  IC50: 1.21 µM
  fold change: 19.9

## CSC1=NSC2=NC(=O)/C(=C/c3coc4ccc(O)cc4c3=O)C(=N)N12
  IC50: 2.5 µM
  fold change: 63.6

## Cc1[nH]c(=O)[nH]c(=O)c1CSCC(=O)OCC(=O)Nc1ccccn1
  IC50: > 54 µM (inactive)
  fold change: 1.09

## N#Cc1c(SCC(N)=O)nc2c(c1-c1ccc(O)cc1)CCCC2
  IC50: > 54 µM (inactive)
  fold change: 0.89

## COc1cccc(/C(O)=C/c2nc3ccc(C(=O)NCCc4ccc(Cl)cc4)cc3[nH]c2=O)c1
  IC50: < 0.42 µM
  fold change: 12.1

## COC(=O)c1ccccc1NC(=O)CCS(=O)(=O)c1ccc(Br)cc1
  IC50: 12.2 µM
  fold change: 1.08

## CCN(CC)c1ccc2cc(NC(=O)CCC(=O)O)c(=O)oc2c1
  IC50: 1.17 µM
  fold change: 12

## COc1ccc(C2C(C(C)=O)=C(C)N=c3s/c(=C\c4cc(C)n(C)c4C)c(=O)n32)c(OC)c1 (stereo unspecified)
  IC50: 4.29 µM
  fold change: 11.8

## O=C(Cc1nc2ccccc2[nH]c1=O)c1ccccc1
  IC50: 9.54 µM
  fold change: 5.07

## CC1(c2ccc3noc(-c4ccc(F)cc4)c3c2)OCCO1
  IC50: 1.53 µM
  fold change: 3.53

## c1ccc(-c2cn3nc(-c4ccccc4)c(-c4ccccc4)nc3n2)cc1
  IC50: 0.78 µM
  fold change: 21.2

## O=C(N/N=C/c1ccc(F)cc1)c1cc(-c2ccco2)nc2ccccc12
  IC50: 3.56 µM
  fold change: 0.96

## CCOC(=O)c1c(C)[nH]c(C)c1C(=O)CSc1nc2ccccc2n1CC
  IC50: > 54 µM (inactive)
  fold change: 1.24

## Cc1ccc(-c2nc(SCC(=O)Nc3ccccc3OC(F)F)c3c(C)c(C(=O)O)sc3n2)cc1
  IC50: 18.2 µM
  fold change: 1.05

## COc1ccc(C2=CC(c3ccco3)n3ncnc3N2)cc1 (stereo unspecified)
  IC50: 1.31 µM
  fold change: 12.4

## O=C1NC(=Nc2ccc(Cl)cc2)/C(=C/c2ccco2)S1
  IC50: 7.25 µM
  fold change: 0.667

## C=CCN1CC(c2nc3ccccc3n2CCOc2ccccc2)CC1=O (stereo unspecified)
  IC50: 34.2 µM (inactive)
  fold change: 1.08

## CCCSCC(=O)Nc1ncc2c(n1)-c1ccccc1CC2
  IC50: 5.28 µM
  fold change: 2.7

## CSc1nc(SCC(=O)O)c2sc3nc(-c4ccccc4)c4c(c3c2n1)CCC4
  IC50: 3.47 µM
  fold change: 1.08

## Cc1c(C#N)c2ncnc(-c3ccccc3)c2n1-c1ccccc1
  IC50: > 54 µM (inactive)
  fold change: 1.02

## O=C1CCCC2=C1Sc1ccccc1N2
  IC50: 5.07 µM
  fold change: 1.99

## O=C(O)COc1ccc(-c2nccc(-c3cccs3)n2)cc1
  IC50: > 54 µM (inactive)
  fold change: 1.03

## CCN(CC)c1ccc2oc(=O)c(C)nc2c1
  IC50: 4.76 µM
  fold change: 9.58

## O=C(Cn1cnc2scc(-c3cccc([N+](=O)[O-])c3)c2c1=O)NCc1ccco1
  IC50: > 54 µM (inactive)
  fold change: 1.04

## COc1cc(/C=N/c2oc(-c3ccccc3)cc2C#N)ccc1O
  IC50: 15.5 µM
  fold change: 10.2

## COc1nc(N/N=C/c2ccc(-c3cccc([N+](=O)[O-])c3)o2)nc(N2CCOCC2)n1
  IC50: 24.2 µM
  fold change: 0.463

## O=C(NCCCn1ccnc1)c1ccc2c(c1)OCCO2
  IC50: > 54 µM (inactive)
  fold change: 1.03

## COc1cc(/C=C2/C(=O)c3cccc([N+](=O)[O-])c3C2=O)c(Br)cc1O
  IC50: > 54 µM (inactive)
  fold change: 0.647

## COCCN=c1scc(-c2ccco2)n1/N=C/c1ccc(O)c(O)c1O
  IC50: 12 µM
  fold change: 1.04

## Cc1cc(-c2ccccc2)c(C#N)c(=S)[nH]1
  IC50: > 54 µM (inactive)
  fold change: 1.04

## CC1CCCCC1NC(=O)CN1C(=O)c2cccc(N)c2C1=O (stereo unspecified)
  IC50: 2.35 µM
  fold change: 2.47

## CCN(CC)C(=O)CC(c1cc(OC)c(OC)c(OC)c1)c1c(OC)cc(OC)c2c(-c3ccccc3)cc(=O)oc12 (stereo unspecified)
  IC50: 33.8 µM (inactive)
  fold change: 1.01

## CC(C)(C)c1cc[n+](-c2[nH]c(=O)sc2/C=N/NC([S-])=Nc2ccccc2)cc1
  IC50: < 0.42 µM
  fold change: 13.6

## CC1CCCN(c2nc3ccccc3nc2C(C#N)S(=O)(=O)c2ccccc2)C1 (stereo unspecified)
  IC50: > 54 µM (inactive)
  fold change: 1.37

## CC(=O)c1ccc(NC(=O)CSc2ccsc2[N+](=O)[O-])cc1
  IC50: > 54 µM (inactive)
  fold change: 1.06

## Cc1ccc(C2C(C(=O)c3cccs3)=C(O)C(=O)N2c2nnc(C)s2)cc1 (stereo unspecified)
  IC50: 0.9 µM
  fold change: 3.94

## Cn1c(=O)[nH]c2cc(Cl)cnc21
  IC50: 7.23 µM
  fold change: 2.34

## CC(=O)c1ccc(N2C(=O)C3C(C2=O)C(C(=O)c2ccc(Cl)cc2)N2CCCC32)cc1 (stereo unspecified)
  IC50: 7.19 µM
  fold change: 8.74

## CC(C)OC(=O)CC(=O)c1sc2nc3c(cc2c1N)CN(C)CC3
  IC50: > 54 µM (inactive)
  fold change: 1.29

## CCOc1ccc2nc(N3C(=O)/C(=C/c4ccc(Cl)cc4)NC3=S)sc2c1
  IC50: > 54 µM (inactive)
  fold change: 1.35

## COc1ccc(-c2c(C#N)c(N)nc3sc(C(=O)c4ccccc4)c(N)c23)cc1
  IC50: 6.7 µM
  fold change: 7.69

## O=C1C2=C(SCCS2)C(=O)N1CCCO
  IC50: 2.57 µM
  fold change: 3.44

## COc1cccc(Nc2ncccc2C(=O)NCc2ccccc2)c1
  IC50: 2.59 µM
  fold change: 3.14

## COc1cc(-c2ccc(Nc3ccccc3C(=O)O)c(OC)c2)ccc1Nc1ccccc1C(=O)O
  IC50: > 54 µM (inactive)
  fold change: 0.9

## CCc1ccc2nc3sc(C(=O)N4CCc5ccccc54)c(N)c3cc2c1
  IC50: < 0.42 µM
  fold change: 16.6

## O=[N+]([O-])c1ccc(/C=N/n2c(CO)nc3ccccc32)s1
  IC50: 22.7 µM
  fold change: 6.56

## Cc1cccc(-n2c(SCc3cc(=O)n4ccsc4n3)nc3ccccc32)c1
  IC50: 2.79 µM
  fold change: 1.78

## COc1ccc2nc(-n3c(O)c(C4=c5ccccc5=NC4=O)[nH]c3=S)sc2c1
  IC50: 3.48 µM
  fold change: 0.923

## Cc1cc(C=C2C(=O)c3ccccc3C2=O)c(C)n1-c1ccc(Cl)cc1
  IC50: 8.5 µM
  fold change: 6.3

## CCCCOc1ccc(-c2cc(C(F)(F)F)c(C#N)c(SCC(=O)O)n2)cc1
  IC50: 6.68 µM
  fold change: 4

## OCCCc1nc2n(n1)C(c1cccs1)C=C(c1ccc(Br)cc1)N2 (stereo unspecified)
  IC50: < 0.42 µM
  fold change: 37.6

## CCOC(=O)C1C(=O)C=C(/C=C/c2ccc(N(C)C)cc2)CC1c1ccccc1 (stereo unspecified)
  IC50: > 54 µM (inactive)
  fold change: 7.93

## O=C(Nc1cccc(Cl)c1)c1cc(N=Nc2ccc([N+](=O)[O-])cc2Cl)ccc1O
  IC50: 17.7 µM
  fold change: 0.99

## Cc1c2cc(O)c(=O)cc-2oc2cc(O)c(O)cc12
  IC50: 1 µM
  fold change: 236

## O=C1NC(=O)N(Cc2ccco2)C(=O)/C1=C/c1ccc(-c2cccc([N+](=O)[O-])c2)o1
  IC50: 16.5 µM
  fold change: 2.15

## Cc1nn(-c2ccccc2)c(N2CCCC2)c1/C=C1\N=C(c2ccc(F)cc2)OC1=O
  IC50: 7.44 µM
  fold change: 5.64

## O=c1[nH]c(=S)n(-c2ccc(Br)cc2)c(O)c1C=Nc1ccc(N2CCOCC2)cc1
  IC50: 3.54 µM
  fold change: 5.78

## CCCN(CCC)S(=O)(=O)c1ccc(C(=O)OCCN2C(=O)c3cccc4c(N5CCOCC5)ccc(c34)C2=O)cc1
  IC50: 1.5 µM
  fold change: 96.6

## NC(=O)c1ccc(N=Nc2c(O)c3ccccc3[nH]c2=O)cc1
  IC50: 13.3 µM
  fold change: 2.71

## CCSc1nnc(-c2sc3nnc(-c4ccccc4)c(-c4ccccc4)c3c2N)o1
  IC50: 2.2 µM
  fold change: 36.9

## COc1ccc(NC(=O)NC(=O)c2cc(OCC(F)(F)F)ccc2OCC(F)(F)F)cc1
  IC50: > 54 µM (inactive)
  fold change: 0.943

## COc1cc(N2CCCC2)c(OC)cc1/C=C(/C#N)c1ccc(F)cc1
  IC50: 9.59 µM
  fold change: 10.8

## CCOc1cc(/C=C(\C#N)c2nc(-c3cccs3)c(NC(C)=O)s2)ccc1O
  IC50: 3.62 µM
  fold change: 5.84

## CN(C)c1ccc(/C=c2/sc3n(c2=O)NC2(c4ccccc4)N(C)C(=O)N(C)C2(c2ccccc2)N=3)cc1 (stereo unspecified)
  IC50: > 54 µM (inactive)
  fold change: 5.21

## N=C1/C(=C\c2ccc(-c3ccc(C(=O)O)cc3)o2)C(=O)N=C2SC=C(c3ccccc3)N12
  IC50: 3.3 µM
  fold change: 1.28

## CN(C)c1ncnc2c1NC1=C(S2)C(=NCCCC(=O)O)CC(C)(C)C1
  IC50: 5.71 µM
  fold change: 3.35

## CCOC(=O)Cn1c(=O)c(-c2cc(Br)ccc2N)nc2ccccc21
  IC50: > 54 µM (inactive)
  fold change: 6.44

## COc1cc(/C=C2\SC(=O)N(Cc3ccc(Cl)cc3)C2=O)cc([N+](=O)[O-])c1O
  IC50: 24.9 µM
  fold change: 1.04

## Oc1ccc2ccccc2c1N=Nc1ccc(F)cc1
  IC50: > 54 µM (inactive)
  fold change: 1.24

## Cc1ccc(/C=C/C(=O)OCc2nc(N)nc(Nc3ccccc3C)n2)o1
  IC50: > 54 µM (inactive)
  fold change: 0.917

## Cc1cc2nc3c(=O)n(CCc4ccccc4)c(=O)[nH]c3nc2cc1N
  IC50: < 0.42 µM
  fold change: 115

## COc1ccccc1N1CCN(CC(O)COc2cccc3ccccc23)CC1 (stereo unspecified)
  IC50: > 54 µM (inactive)
  fold change: 0.917

## Cc1nnc(NC(=O)COc2ccc3c(C)cc(=O)oc3c2)s1
  IC50: > 54 µM (inactive)
  fold change: 1.06

## Cc1nc2ccccc2n2c(O)c(CC(=O)O)cc12
  IC50: > 54 µM (inactive)
  fold change: 7.32

## Cc1c(N=C2N=C(NC(=O)c3cccs3)c3ccccc32)c(=O)n(-c2ccccc2)n1C
  IC50: 3.19 µM
  fold change: 4.49
